Test results reported in patent publication US10617656B2, “Methods of increasing the cytotoxicity of chemotherapeutic agents with multisubstrate inhibitors of histone, protein-Lys, polyamine acetylation, and polyamine metabolism” (Vanderbilt University, priority 2010, dated 2020).

Columns and labels:
MCF7 breast cancer cells = conditions: 72 hr assay; DFMO 100 μM, 5FU 2 μM, doxorubicin 100 nM
Procedure: Viability was measured 3 days after the start of treatment and is expressed as a percentage of control (untreated) cell viability.
Each point is average of triplicates. […]
The present inventors carried out 96-well viability assays as we have previously described (Saadatmandi et al, Cancer Gene Therapy (2002) 9:830-9), in which MCF7 breast cancer cells were plated at 3000 cells per well. After overnight attachment, triplicate wells were treated with increasing doses of inhibitor 1a. Control wells were left untreated. After 3 days, cell viability was measured by the MTS assay, which measures the bioconversion of an uncolored substrate to a colored formazan derivative, and is proportional to cell number.

[1] = tested on: MDA MB-435 breast cancer cells; experiment: 72 hr viability assay, MDA MB-435; type: cell-based; conditions: 72 hr assay; DFMO 100 μM, 5FU 2 μM, doxorubicin 100 nM
γ-H2A.X in H358 cells = experiment: γ-H2A.X Western / double strand break repair assay; type: cell-based; conditions: 18 hours post-start; low doses as in FIG. 3
Procedure: Also shown are controls for no treatment (“c” minus 1a) or treatment with 1a only (“c” plus 1a). Each lane represents 60 μg protein. […] Each lane represents 60 μg protein.
To measure DSB repair, cells were incubated for 1 hour with 10 μM camptothecin to induce DSBs, followed by incubation in the presence or absence of 50 μM 1a. At fixed times, histones were prepared by extraction in 0.2M H2SO4 as described previously and 50 μg extract was analyzed by 12% SDS-PAGE followed Western analysis as described previously, using rabbit polyclonal anti-γ-H2A.X [phosphor ser 139] (Novus Biologicals, Littleton, Colo.) or anti-H3 (Upstate Biotechnology, Inc, Lake Placid, N.Y.). Band intensities were quantitated digitally. To study acetylation of γ-H2A.X, we carried out co-immunoprecipitation analysis using 50 μg extract protein in immunoprecipitation buffer (10 mM sodium phosphate pH 7, 0.15 M NaCl, 0.1% SDS, 1% NP40, 1% sodium deoxycholate, aprotinin, 1 mM PMSF, complete protease inhibitors (Roche) using immobilized anti-acetyl-lysine (Millipore, Temecula, Calif.) in the immunoprecipitation step. The immunoprecipitated material was then analyzed as for Western analysis using anti γ-H2A.X.

H358 lung cancer cells = type: cell-based
Procedure: Control cells were left untreated. […] Control cells were left untreated.
Cells were given fresh inhibitor on the first, second, and third days of treatment and viability was measured on the 4th day (i.e. 3 days post start of treatment). […]
(A) Structure of Spd-3a. (B) Western analysis of histone H3K9-acetylation and total histone H3, measured in control, untreated H358 lung cancer cells “C” or in H358 cells incubated 12 hours in the presence of 50 μM Spd-2a or Spd-3a. Each lane represents 60 μg cellular protein. (C) [3H]-thymidine incorporation (counts per minute) into DNA of H358 cells during a 6 hour pulse beginning at 42 hours post-start of treatment. Treatments were as follows (bars 1-6 left to right): (1) control: no treatment; (2) CPT alone: 5 nM 18 hours; (3) 3a alone: 50 μM; (4-6) 3a+CPT: CPT (5 nm, 18 hours)+3a at indicated dose. After 18 hours, CPT was removed and medium was replaced with fresh medium containing Spd-3a at the indicated dose. Each bar represents the average of triplicates. (D) 3-day 96-well viability assay of H358 cells grown in the presence of increasing amounts of Spd-2a or Spd-3a, with or without CPT (5 nM 18 hours). […] Each data point represents the average of three wells.
Date of exp: Jul. […] Date of exp: Sep.
Cells were plated in 96-well plates at 2000 cells per well and treated with the indicated doses of spd-3a. Cell viability was measured by the MTS assay 3 days later.
DLD-1 cells or H358 cells were plated in 96-well plates at 2000 cells per well and treated with the indicated doses of (A) spm-3 or (B) spm-2. (C) Cell viability was measured by the MTS assay 3 days later. Similar experiment using GT41 fibroblasts with spm2 or spm 3. Each assay point represents an average of duplicates. […]

[2] = tested on: endogenous HATs associated with solubilized chromatin; conditions: Bandyopadhyay et al, 2009; cited from earlier work

SMILES	effect as single agent on viability (MCF7 breast cancer cells)	effect as single agent on viability [1]	γ-H2A.X level, single agent (γ-H2A.X in H358 cells)	suppression of 3 day cell viability (H358 lung cancer cells)	inhibitory activity against endogenous HAT activity, isomers compared [2]
COc1cccc2c1C(=O)c1c(O)c3c(c(O)c1C2=O)C[C@@](O)(C(=O)CO)C[C@@H]3O[C@H]1C[C@H](N)[C@H](O)[C@H](C)O1 [doxorubicin]	minimal effects	minimal effects			
O=c1[nH]cc(F)c(=O)[nH]1 [5FU, 5-Fluorouracil]	minimal effects	minimal effects	weakly detectable		
N.N.[Cl][Pt][Cl] [cisplatin, cis-diamminedichloro-platinium]			weakly detectable		
CC(C)(COP(=O)(O)OP(=O)(O)OC[C@H]1O[C@@H](n2cnc3c(N)ncnc32)[C@H](O)[C@@H]1OP(=O)(O)O)[C@@H](O)C(=O)NCCC(=O)NCCSCC(=O)NCCCCNCCCN [1b, spermidine [N8]-CoA]				60-70%	comparable inhibitory activity
